*1 amine or outer side, *2 acyl side, *3 side chain or, on linkers, in order; H or OH if unused. Where a SMILES comes first, the peptide text is derived from it. Bridges are numbered along the chain shown (N, C = ends). [ ]: non-standard residue; d: D form. ξ: configuration not given here. X11 = CCCC[C@@H](C(=O)C1C[C@H](O)C[C@@H]1C(=O)[*:2])N(C)[*:1]; Phe(4-NO2) = N[C@@H](Cc1ccc([N+](=O)[O-])cc1)C(=O)O; Phe(3,4,5-F3) = N[C@@H](Cc1cc(F)c(F)c(F)c1)C(=O)O; Phe(3,4-Cl2) = N[C@@H](Cc1ccc(Cl)c(Cl)c1)C(=O)O; NMeAla(4-thiazolyl) = CN[C@@H](Cc1cscn1)C(=O)O; Trp(7-aza) = N[C@@H](Cc1c[nH]c2ncccc12)C(=O)O; Phe(3-Cl) = N[C@@H](Cc1cccc(Cl)c1)C(=O)O; ξαMeW = CC(N)(Cc1c[nH]c2ccccc12)C(=O)O; d(cisHyp) = O=C(O)[C@H]1C[C@@H](O)CN1; Bta = N[C@@H](Cc1csc2ccccc12)C(=O)O; NMe3Pal = CN[C@@H](Cc1cccnc1)C(=O)O; NMeF = CN[C@@H](Cc1ccccc1)C(=O)O; X1 = O=C([C@H]1COCCN1[*:1])[*:2]; dPip(4-aza) = O=C(O)[C@H]1CNCCN1; 3Pal = N[C@@H](Cc1cccnc1)C(=O)O; 4Pal = N[C@@H](Cc1ccncc1)C(=O)O; NMeNle = CCCC[C@H](NC)C(=O)O; dPip = O=C(O)[C@H]1CCCCN1; Orn = NCCC[C@H](N)C(=O)O; dAze = O=C(O)[C@H]1CCN1; Sar = CNCC(=O)O
target: T1, Human PD-L1/PD-1 (Homo sapiens, UniProt Q9NZQ7); experiment: HTRF Human PD-L1/PD-1 binding assay (PD-1-Ig/PD-L1-His); settings: PD-L1-His 10 nM, PD-1-Ig 20 nM; class symbol; read-out: HTRF Human PD-L1/PD-1 Binding Assay IC50 Range
T1 construct: TVMV protease cleavage site (C); made in house; host or cells: HEK293T cells
T1 sequence (Q9NZQ7 with tags, fused parts or gaps): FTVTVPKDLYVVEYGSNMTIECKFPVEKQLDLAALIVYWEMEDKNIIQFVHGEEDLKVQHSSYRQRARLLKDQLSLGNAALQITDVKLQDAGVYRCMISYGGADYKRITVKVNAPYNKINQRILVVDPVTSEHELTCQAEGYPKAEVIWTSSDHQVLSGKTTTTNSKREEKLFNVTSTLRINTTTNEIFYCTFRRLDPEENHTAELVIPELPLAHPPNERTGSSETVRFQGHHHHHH
Outline: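 Soluble HEK293T-expressed proteins: hPD-L1-His 10 nM, hPD-1-Ig 20 nM final. Cpd + PD-L1 15 min, + PD-1 15 min, + Eu anti-Ig 1 nM/APC anti-His 20 nM 30 min. Buffer dPBS, 0.1% BSA, 0.05% Tween-20. TR-FRET 665/620.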

Row | IC50 [nM] | Structure (SMILES)
1 | 10 to 99.9 | CCCC[C@H]1C(=O)N(C)CC(=O)N[C@@H](CC(N)=O)C(=O)N[C@@H](C(C)C)C(=O)N(C)[C@@H](Cc2ccccc2)C(=O)N[C@@H](Cc2ccc(O)cc2)C(=O)N(C)CC(=O)N[C@@H](Cc2c[nH]c3ncccc23)C(=O)N[C@@H](Cc2ccc(O)cc2)C(=O)N[C@@H](CC(C)C)C(=O)N[C@H](C(=O)NCC(N)=O)CSCC(=O)N[C@@H](Cc2ccccc2)C(=O)N(C)[C@@H](Cc2ccccc2)C(=O)N1C [Example 3241] ({CH2CO}-F[NMeF][NMeNle][Sar]NV[NMeF]Y[Sar][Trp(7-aza)]YLCG-NH2; thioether N-13)
2 | 100 to 990 | CCCC[C@H]1C(=O)N(C)CC(=O)N[C@@H](CC(=O)O)C(=O)N[C@@H](C(C)C)C(=O)N(C)[C@@H](Cc2ccccc2)C(=O)N[C@@H](Cc2ccc(O)cc2)C(=O)N(C)CC(=O)N[C@@H](Cc2c[nH]c3ccccc23)C(=O)N[C@@H](Cc2ccc(O)cc2)C(=O)N[C@@H](CC(C)C)C(=O)N[C@H](C(=O)NCC(N)=O)CSCC(=O)N[C@@H](Cc2ccncc2)C(=O)N(C)[C@@H](Cc2ccccc2)C(=O)N1C [Example 3242] ({CH2CO}-[4Pal][NMeF][NMeNle][Sar]DV[NMeF]Y[Sar]WYLCG-NH2; thioether N-13)
3 | 10 to 99.9 | CCCC[C@H]1C(=O)N(C)CC(=O)N[C@@H](CC(=O)O)C(=O)N[C@@H](C(C)C)C(=O)N(C)[C@@H](Cc2ccccc2)C(=O)N[C@@H](Cc2ccc(O)cc2)C(=O)N(C)CC(=O)N[C@@H](Cc2c[nH]c3ccccc23)C(=O)N[C@@H](Cc2ccc(O)cc2)C(=O)N[C@@H](CC(C)C)C(=O)N[C@H](C(=O)NCC(N)=O)CSCC(=O)N[C@@H](Cc2cccnc2)C(=O)N(C)[C@@H](Cc2ccccc2)C(=O)N1C [Example 3243] ({CH2CO}-[3Pal][NMeF][NMeNle][Sar]DV[NMeF]Y[Sar]WYLCG-NH2; thioether N-13)
4 | 10 to 99.9 | CCCC[C@H]1C(=O)N(C)CC(=O)N[C@@H](CC(=O)O)C(=O)N[C@@H](C(C)C)C(=O)N(C)[C@@H](Cc2ccccc2)C(=O)N[C@@H](Cc2ccc(O)cc2)C(=O)N(C)CC(=O)N[C@@H](Cc2c[nH]c3ccccc23)C(=O)N[C@@H](Cc2ccc(O)cc2)C(=O)N[C@@H](CC(C)C)C(=O)N[C@H](C(=O)NCC(N)=O)CSCC(=O)N[C@@H](Cc2ccc([N+](=O)[O-])cc2)C(=O)N(C)[C@@H](Cc2ccccc2)C(=O)N1C [Example 3244] ({CH2CO}-[Phe(4-NO2)][NMeF][NMeNle][Sar]DV[NMeF]Y[Sar]WYLCG-NH2; thioether N-13)
5 | 1000 to 10000 | CCCC[C@H]1C(=O)N(C)CC(=O)N[C@@H](CC(=O)O)C(=O)N[C@@H](C(C)C)C(=O)N(C)[C@@H](Cc2ccccc2)C(=O)N[C@@H](Cc2ccc(O)cc2)C(=O)N(C)CC(=O)N[C@@H](Cc2c[nH]c3ccccc23)C(=O)N[C@@H](Cc2ccc(O)cc2)C(=O)N[C@@H](CC(C)C)C(=O)N[C@H](C(=O)NCC(N)=O)CSCC(=O)N[C@@H](Cc2csc3ccccc23)C(=O)N(C)[C@@H](Cc2ccccc2)C(=O)N1C [Example 3245] ({CH2CO}-[Bta][NMeF][NMeNle][Sar]DV[NMeF]Y[Sar]WYLCG-NH2; thioether N-13)
6 | 10 to 99.9 | CCCC[C@H]1C(=O)N(C)CC(=O)N[C@@H](CC(=O)O)C(=O)N[C@@H](C(C)C)C(=O)N(C)[C@@H](Cc2ccccc2)C(=O)N[C@@H](Cc2ccc(O)cc2)C(=O)N(C)CC(=O)N[C@@H](Cc2c[nH]c3ccccc23)C(=O)N[C@@H](Cc2ccc(O)cc2)C(=O)N[C@@H](CC(C)C)C(=O)N[C@H](C(=O)NCC(N)=O)CSCC(=O)N[C@@H](Cc2ccc(Cl)c(Cl)c2)C(=O)N(C)[C@@H](Cc2ccccc2)C(=O)N1C [Example 3246] ({CH2CO}-[Phe(3,4-Cl2)][NMeF][NMeNle][Sar]DV[NMeF]Y[Sar]WYLCG-NH2; thioether N-13)
7 | 10 to 99.9 | CCCC[C@H]1C(=O)N(C)CC(=O)N[C@@H](CC(N)=O)C(=O)N[C@@H](C(C)C)C(=O)N(C)[C@@H](Cc2ccccc2)C(=O)N[C@@H](Cc2ccc(O)cc2)C(=O)N(C)CC(=O)N[C@@H](Cc2c[nH]c3ccccc23)C(=O)N[C@@H](Cc2ccc(O)cc2)C(=O)N[C@@H](CCCN)C(=O)N[C@H](C(=O)NCC(N)=O)CSCC(=O)N[C@@H](Cc2ccccc2)C(=O)N(C)[C@@H](Cc2cccnc2)C(=O)N1C [Example 3614] ({CH2CO}-F[NMe3Pal][NMeNle][Sar]NV[NMeF]Y[Sar]WY[Orn]CG-NH2; thioether N-13)
8 | 10 to 99.9 | CCCC[C@H]1C(=O)N(C)CC(=O)N[C@@H](CC(N)=O)C(=O)N[C@@H](C(C)C)C(=O)N(C)[C@@H](Cc2ccccc2)C(=O)N[C@@H](Cc2ccc(O)cc2)C(=O)N(C)CC(=O)N[C@@H](Cc2c[nH]c3ccccc23)C(=O)N[C@@H](Cc2ccc(O)cc2)C(=O)N[C@@H](CCCN)C(=O)N[C@H](C(=O)NCC(N)=O)CSCC(=O)N[C@@H](Cc2ccccc2)C(=O)N(C)[C@@H](Cc2cscn2)C(=O)N1C [Example 3616] ({CH2CO}-F[NMeAla(4-thiazolyl)][NMeNle][Sar]NV[NMeF]Y[Sar]WY[Orn]CG-NH2; thioether N-13)
9 | 1000 to 10000 | CCCC[C@H]1C(=O)N(C)CC(=O)N[C@@H](CC(=O)O)C(=O)N[C@@H](C(C)C)C(=O)N[C@@H](Cc2ccccc2)C(=O)N[C@@H](Cc2ccc(O)cc2)C(=O)N(C)CC(=O)NC(C)(Cc2c[nH]c3ccccc23)C(=O)N[C@@H](Cc2ccc(O)cc2)C(=O)N[C@@H](CC(C)C)C(=O)N[C@H](C(=O)NCC(N)=O)CSCC(=O)N[C@@H](Cc2ccccc2)C(=O)N(C)[C@@H](Cc2ccccc2)C(=O)N1C (stereo partly shown) [Example 3639] ({CH2CO}-F[NMeF][NMeNle][Sar]DVFY[Sar][ξαMeW]YLCG-NH2; thioether N-13)
10 | 10 to 99.9 | CCCC[C@H]1C(=O)N2CCCC[C@@H]2C(=O)N[C@@H](CC(=O)O)C(=O)N[C@@H](C(C)C)C(=O)N(C)[C@@H](Cc2ccccc2)C(=O)N[C@@H](CCC(=O)O)C(=O)N2CCOC[C@@H]2C(=O)N[C@@H](Cc2c[nH]c3ccccc23)C(=O)N[C@@H](Cc2ccc(O)cc2)C(=O)N[C@@H](CCCN)C(=O)N[C@H](C(=O)NCC(N)=O)CSCC(=O)N[C@@H](Cc2cc(F)c(F)c(F)c2)C(=O)N(C)[C@@H](Cc2ccccc2)C(=O)N1C [Example 3641] ({CH2CO}-[Phe(3,4,5-F3)][NMeF][NMeNle][dPip]DV[NMeF]E[X1]WY[Orn]CG-NH2; thioether N-13)
11 | 10 to 99.9 | CCCC[C@H]1C(=O)C2C[C@H](O)C[C@@H]2C(=O)N[C@@H](CC(=O)O)C(=O)N[C@@H](C(C)C)C(=O)N(C)[C@@H](Cc2ccccc2)C(=O)N[C@@H](CCC(=O)O)C(=O)N2CCCC[C@@H]2C(=O)N[C@@H](Cc2c[nH]c3ccccc23)C(=O)N[C@@H](Cc2ccc(O)cc2)C(=O)N[C@@H](CCCN)C(=O)N[C@H](C(=O)NCC(N)=O)CSCC(=O)N[C@@H](Cc2cc(F)c(F)c(F)c2)C(=O)N(C)[C@@H](Cc2ccccc2)C(=O)N1C (stereo partly shown) [Example 3642] ({CH2CO}-[Phe(3,4,5-F3)][NMeF][X11]DV[NMeF]E[dPip]WY[Orn]CG-NH2; thioether N-12)
12 | 10 to 99.9 | CCCC[C@H]1C(=O)N2CC[C@@H]2C(=O)N[C@@H](CC(=O)O)C(=O)N[C@@H](C(C)C)C(=O)N(C)[C@@H](Cc2ccccc2)C(=O)N[C@@H](CCC(=O)O)C(=O)N2CCOC[C@@H]2C(=O)N[C@@H](Cc2c[nH]c3ccccc23)C(=O)N[C@@H](Cc2ccc(O)cc2)C(=O)N[C@@H](CCCN)C(=O)N[C@H](C(=O)NCC(N)=O)CSCC(=O)N[C@@H](Cc2cc(F)c(F)c(F)c2)C(=O)N(C)[C@@H](Cc2ccccc2)C(=O)N1C [Example 3643] ({CH2CO}-[Phe(3,4,5-F3)][NMeF][NMeNle][dAze]DV[NMeF]E[X1]WY[Orn]CG-NH2; thioether N-13)
13 | 1 to 9.9 | CCCC[C@H]1C(=O)N2C[C@H](O)C[C@@H]2C(=O)N[C@@H](CC(=O)O)C(=O)N[C@@H](C(C)C)C(=O)N(C)[C@@H](Cc2ccccc2)C(=O)N[C@@H](CCC(=O)O)C(=O)N2CC[C@@H]2C(=O)N[C@@H](Cc2c[nH]c3ccccc23)C(=O)N[C@@H](Cc2ccc(O)cc2)C(=O)N[C@@H](CCCN)C(=O)N[C@H](C(=O)NCC(N)=O)CSCC(=O)N[C@@H](Cc2cc(F)c(F)c(F)c2)C(=O)N(C)[C@@H](Cc2ccccc2)C(=O)N1C [Example 3644] ({CH2CO}-[Phe(3,4,5-F3)][NMeF][NMeNle][d(cisHyp)]DV[NMeF]E[dAze]WY[Orn]CG-NH2; thioether N-13)
14 | 10 to 99.9 | CCCC[C@H]1C(=O)N2CCC[C@@H]2C(=O)N[C@@H](CC(=O)O)C(=O)N[C@@H](C(C)C)C(=O)N(C)[C@@H](Cc2ccccc2)C(=O)N[C@@H](CCC(=O)O)C(=O)N2CCOC[C@@H]2C(=O)N[C@@H](Cc2c[nH]c3ccccc23)C(=O)N[C@@H](Cc2ccc(O)cc2)C(=O)N[C@@H](CCCN)C(=O)N[C@H](C(=O)NCC(N)=O)CSCC(=O)N[C@@H](Cc2cc(F)c(F)c(F)c2)C(=O)N(C)[C@@H](Cc2ccccc2)C(=O)N1C [Example 3645] ({CH2CO}-[Phe(3,4,5-F3)][NMeF][NMeNle][dP]DV[NMeF]E[X1]WY[Orn]CG-NH2; thioether N-13)
15 | 10 to 99.9 | CCCC[C@H]1C(=O)N2C[C@H](O)C[C@@H]2C(=O)N[C@@H](CC(=O)O)C(=O)N[C@@H](C(C)C)C(=O)N(C)[C@@H](Cc2ccccc2)C(=O)N[C@@H](CCC(=O)O)C(=O)N2CCC[C@@H]2C(=O)N[C@@H](Cc2c[nH]c3ccccc23)C(=O)N[C@@H](Cc2ccc(O)cc2)C(=O)N[C@@H](CCCN)C(=O)N[C@H](C(=O)NCC(N)=O)CSCC(=O)N[C@@H](Cc2cc(F)c(F)c(F)c2)C(=O)N(C)[C@@H](Cc2ccccc2)C(=O)N1C [Example 3646] ({CH2CO}-[Phe(3,4,5-F3)][NMeF][NMeNle][d(cisHyp)]DV[NMeF]E[dP]WY[Orn]CG-NH2; thioether N-13)
16 | 10 to 99.9 | CCCC[C@H]1C(=O)N2C[C@H](O)C[C@@H]2C(=O)N[C@@H](CC(=O)O)C(=O)N[C@@H](C(C)C)C(=O)N(C)[C@@H](Cc2ccccc2)C(=O)N[C@@H](CCC(=O)O)C(=O)N2CCNC[C@@H]2C(=O)N[C@@H](Cc2c[nH]c3ccccc23)C(=O)N[C@@H](Cc2ccc(O)cc2)C(=O)N[C@@H](CCCN)C(=O)N[C@H](C(=O)NCC(N)=O)CSCC(=O)N[C@@H](Cc2cccc(Cl)c2)C(=O)N(C)[C@@H](Cc2ccccc2)C(=O)N1C [Example 3647] ({CH2CO}-[Phe(3-Cl)][NMeF][NMeNle][d(cisHyp)]DV[NMeF]E[dPip(4-aza)]WY[Orn]CG-NH2; thioether N-13)

From patent US10538555B2, “Macrocyclic inhibitors of the PD-1/PD-L1 and CD80(B7-1)/PD-L1 protein/protein interactions” (BRISTOL-MYERS SQUIBB COMPANY, priority 2014, dated 2020)
